{"source": "patent US11572590B2", "about": "“Methods for evaluating tumor cell spheroids using 3D microfluidic cell culture device” (Dana-Farber Cancer Institute, Inc., priority 2017, dated 2023)", "assay_in_all_cases": "SelectScreen Kinase Profiling, single point inhibition and IC50 for off-target kinases", "type_in_all_cases": "biochemical", "key": {"off-target kinases [1]": {"target": "T1, off-target kinases (Homo sapiens, UniProt O14965)", "T1 sequence (O14965 1-403)": "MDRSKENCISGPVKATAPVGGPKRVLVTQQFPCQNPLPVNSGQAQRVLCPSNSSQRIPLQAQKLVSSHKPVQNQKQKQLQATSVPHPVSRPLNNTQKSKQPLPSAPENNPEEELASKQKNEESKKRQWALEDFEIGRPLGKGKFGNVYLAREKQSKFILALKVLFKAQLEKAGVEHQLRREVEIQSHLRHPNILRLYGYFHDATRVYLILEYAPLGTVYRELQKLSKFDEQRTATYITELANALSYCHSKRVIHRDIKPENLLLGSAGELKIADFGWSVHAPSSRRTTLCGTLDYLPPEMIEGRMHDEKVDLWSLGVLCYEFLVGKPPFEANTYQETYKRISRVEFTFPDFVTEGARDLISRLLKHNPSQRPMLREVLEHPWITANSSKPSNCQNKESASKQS", "conditions": "AURKA (Aurora A), ATP Km app, ZLYTE"}, "off-target kinases [2]": {"target": "T2, off-target kinases (Homo sapiens, UniProt Q8IYT8)", "T2 sequence (Q8IYT8 1-1036)": "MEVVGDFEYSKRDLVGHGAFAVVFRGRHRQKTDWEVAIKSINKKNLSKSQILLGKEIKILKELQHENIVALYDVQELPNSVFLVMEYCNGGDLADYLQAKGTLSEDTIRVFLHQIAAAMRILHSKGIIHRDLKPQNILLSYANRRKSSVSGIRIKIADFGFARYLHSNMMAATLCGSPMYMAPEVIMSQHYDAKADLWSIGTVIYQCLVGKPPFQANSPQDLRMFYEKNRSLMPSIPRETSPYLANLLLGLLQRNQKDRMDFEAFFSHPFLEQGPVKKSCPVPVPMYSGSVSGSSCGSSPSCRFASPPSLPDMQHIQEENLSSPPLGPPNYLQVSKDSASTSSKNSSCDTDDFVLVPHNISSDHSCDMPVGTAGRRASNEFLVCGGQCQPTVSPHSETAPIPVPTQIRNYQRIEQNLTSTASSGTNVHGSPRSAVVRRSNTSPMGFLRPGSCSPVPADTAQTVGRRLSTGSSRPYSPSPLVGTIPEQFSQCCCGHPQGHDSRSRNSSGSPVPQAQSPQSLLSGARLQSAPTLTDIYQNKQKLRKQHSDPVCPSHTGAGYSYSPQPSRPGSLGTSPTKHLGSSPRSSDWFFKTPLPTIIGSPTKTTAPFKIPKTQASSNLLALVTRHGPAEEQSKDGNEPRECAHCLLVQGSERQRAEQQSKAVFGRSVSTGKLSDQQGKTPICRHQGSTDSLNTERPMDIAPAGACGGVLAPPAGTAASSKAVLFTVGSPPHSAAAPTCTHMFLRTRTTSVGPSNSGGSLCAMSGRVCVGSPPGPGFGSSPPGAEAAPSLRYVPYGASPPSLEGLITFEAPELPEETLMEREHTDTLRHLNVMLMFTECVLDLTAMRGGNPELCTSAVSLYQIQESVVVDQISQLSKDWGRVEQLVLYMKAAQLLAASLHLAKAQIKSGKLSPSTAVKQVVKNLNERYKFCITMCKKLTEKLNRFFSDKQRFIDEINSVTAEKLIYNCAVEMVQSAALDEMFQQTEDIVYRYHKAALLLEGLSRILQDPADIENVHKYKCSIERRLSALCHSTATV", "conditions": "ULK2, LanthaScreen Binding"}, "off-target kinases [3]": {"target": "off-target kinases (Homo sapiens, UniProt P08922)", "sequence (P08922 28-2347)": "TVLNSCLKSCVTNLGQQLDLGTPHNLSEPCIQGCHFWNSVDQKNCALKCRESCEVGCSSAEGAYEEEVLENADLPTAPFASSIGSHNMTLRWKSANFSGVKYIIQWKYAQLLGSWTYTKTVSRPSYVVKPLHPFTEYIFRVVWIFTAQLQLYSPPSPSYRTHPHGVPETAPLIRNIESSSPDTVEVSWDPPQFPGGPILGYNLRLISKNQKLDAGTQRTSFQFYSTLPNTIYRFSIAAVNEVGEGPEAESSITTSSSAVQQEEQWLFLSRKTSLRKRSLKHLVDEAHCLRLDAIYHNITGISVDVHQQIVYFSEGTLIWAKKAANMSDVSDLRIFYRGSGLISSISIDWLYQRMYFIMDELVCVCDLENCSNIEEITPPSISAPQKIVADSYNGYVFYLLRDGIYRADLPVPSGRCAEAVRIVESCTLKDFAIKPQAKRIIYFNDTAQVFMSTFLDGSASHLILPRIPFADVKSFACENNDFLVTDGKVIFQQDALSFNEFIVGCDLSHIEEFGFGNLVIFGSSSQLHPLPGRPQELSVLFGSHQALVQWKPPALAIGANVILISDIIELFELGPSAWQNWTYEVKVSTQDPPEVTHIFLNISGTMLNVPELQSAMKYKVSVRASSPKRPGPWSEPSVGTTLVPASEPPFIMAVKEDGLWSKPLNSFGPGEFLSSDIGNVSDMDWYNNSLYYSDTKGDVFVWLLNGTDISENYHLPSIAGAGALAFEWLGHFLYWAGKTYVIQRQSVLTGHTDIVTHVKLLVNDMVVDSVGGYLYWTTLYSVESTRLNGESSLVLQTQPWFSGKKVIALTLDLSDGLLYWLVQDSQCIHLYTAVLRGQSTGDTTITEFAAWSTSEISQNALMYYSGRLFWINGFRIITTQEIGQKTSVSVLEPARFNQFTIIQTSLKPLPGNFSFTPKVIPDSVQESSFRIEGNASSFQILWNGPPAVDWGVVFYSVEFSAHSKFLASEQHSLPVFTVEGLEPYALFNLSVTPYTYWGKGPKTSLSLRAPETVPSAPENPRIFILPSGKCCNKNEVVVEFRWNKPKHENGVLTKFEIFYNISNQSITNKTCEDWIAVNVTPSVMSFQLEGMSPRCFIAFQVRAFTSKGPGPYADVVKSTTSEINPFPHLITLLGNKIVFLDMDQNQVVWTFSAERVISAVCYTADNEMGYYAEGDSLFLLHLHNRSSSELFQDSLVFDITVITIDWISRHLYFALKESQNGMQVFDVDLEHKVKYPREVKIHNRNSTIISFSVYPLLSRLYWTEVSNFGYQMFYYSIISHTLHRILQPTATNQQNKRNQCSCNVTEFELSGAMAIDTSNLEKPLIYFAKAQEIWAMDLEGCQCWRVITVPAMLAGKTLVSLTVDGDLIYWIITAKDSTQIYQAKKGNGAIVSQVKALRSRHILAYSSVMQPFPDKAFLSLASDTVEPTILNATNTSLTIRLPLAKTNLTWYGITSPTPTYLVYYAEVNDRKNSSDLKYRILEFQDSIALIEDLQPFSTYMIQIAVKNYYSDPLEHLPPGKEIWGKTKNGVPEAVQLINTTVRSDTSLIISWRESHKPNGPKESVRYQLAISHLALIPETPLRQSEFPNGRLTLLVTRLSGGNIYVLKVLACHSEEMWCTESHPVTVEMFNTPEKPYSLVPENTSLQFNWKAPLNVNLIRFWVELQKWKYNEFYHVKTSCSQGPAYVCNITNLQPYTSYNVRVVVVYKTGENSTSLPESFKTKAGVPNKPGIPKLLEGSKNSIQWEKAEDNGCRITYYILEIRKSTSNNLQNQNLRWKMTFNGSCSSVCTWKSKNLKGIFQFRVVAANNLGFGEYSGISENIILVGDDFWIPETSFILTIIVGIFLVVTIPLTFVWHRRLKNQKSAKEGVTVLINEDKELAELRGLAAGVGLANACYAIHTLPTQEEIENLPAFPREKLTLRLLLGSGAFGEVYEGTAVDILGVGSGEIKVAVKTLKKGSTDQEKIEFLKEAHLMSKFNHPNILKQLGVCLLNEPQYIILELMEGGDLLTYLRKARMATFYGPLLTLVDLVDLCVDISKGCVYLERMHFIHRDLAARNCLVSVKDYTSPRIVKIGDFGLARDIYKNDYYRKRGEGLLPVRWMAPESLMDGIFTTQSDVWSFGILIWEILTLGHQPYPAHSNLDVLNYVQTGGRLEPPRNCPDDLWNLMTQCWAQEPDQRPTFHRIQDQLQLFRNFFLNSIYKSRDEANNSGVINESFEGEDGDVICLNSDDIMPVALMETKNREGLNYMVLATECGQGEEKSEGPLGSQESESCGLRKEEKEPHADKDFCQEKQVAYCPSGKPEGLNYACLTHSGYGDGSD", "conditions": "ROS1, ZLYTE, ATP Km app"}}, "note": "Read-outs that look alike come from different tables or passages of the source."}
{"smiles": "N#Cc1cc(-c2ncnc(Nc3ccc(N4CCN(C5COC5)CC4)cc3)n2)ccc1OC1CCOCC1", "note": "[Compound 1, 5-(4-((4-(4-(oxetan-3-yl)piperazin-1-yl)phenyl)amino)-1,3,5-triazin-2-yl)-2-((tetrahydro-2H-pyran-4-yl)oxy)benzonitrile]", "values": [{"measurement": "inhibition", "setting": "off-target kinases [1]; read-out: % Inhibition 1", "value": 91, "unit": "%"}, {"measurement": "inhibition", "setting": "off-target kinases [1]; read-out: % Inhibition 2", "value": 86, "unit": "%"}, {"measurement": "inhibition", "setting": "off-target kinases [1]; read-out: % Inhibition Avg", "value": 89, "unit": "%"}, {"measurement": "inhibition", "setting": "off-target kinases [2]; read-out: % Inhibition 1", "value": 86, "unit": "%"}, {"measurement": "inhibition", "setting": "off-target kinases [2]; read-out: % Inhibition 2", "value": 90, "unit": "%"}, {"measurement": "inhibition", "setting": "off-target kinases [2]; read-out: % Inhibition Avg", "value": 88, "unit": "%"}, {"measurement": "inhibition", "setting": "off-target kinases [3]; read-out: % Inhibition 1", "value": 30, "unit": "%"}, {"measurement": "inhibition", "setting": "off-target kinases [3]; read-out: % Inhibition 2", "value": 26, "unit": "%"}, {"measurement": "inhibition", "setting": "off-target kinases [3]; read-out: % Inhibition Avg", "value": 28, "unit": "%"}]}
